Calls of active or inactive are those of the source. How the calls were made is not given here.
Test system: parental cell line counter screen, S1P1 agonist assay readout
Assay: signal in parental cells, counter-screen for S1P1 agonist project (AID 467);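 further: agonist potency measured against forskolin stimulation plus an EC20 level of SEW2871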

SMILES	EC50
Cc1nnc(SCC(=O)N2CCC(c3noc4ccc(F)cc34)CC2)s1	> 95.1 µM (inactive)
Cc1sc2ncnc(Sc3nnnn3-c3ccccc3)c2c1C	> 30 µM (inactive)
Cc1cc(C(=O)N2CCN(C(c3ccccc3)c3ccccc3)CC2)on1	> 95.1 µM (inactive)
Cc1cc(C(=O)Nc2sc(C)c(-c3ccc(F)cc3)c2C(N)=O)no1	> 95.1 µM (inactive)
Clc1ccc(CSc2nnc(-c3ccncc3)o2)cc1	86.9 µM (inactive)
N#C/C(=C/c1ccc(N2CCCCCC2)o1)c1ccc(F)cc1	4.4 µM
Oc1c(C(c2ccco2)N2CCN(C(c3ccccc3)c3ccccc3)CC2)sc2ncnn12 (stereo not drawn)	39.5 µM (inactive)
CCOC(=O)c1oc2ccc(S(=O)(=O)n3nc(-c4ccc(OC)cc4)cc3N)cc2c1C	> 95.1 µM (inactive)
CCOc1ccc(-c2noc(-c3cccnc3)n2)cc1OC	> 95.1 µM (inactive)
CCCn1c(NC(=O)c2cccc(S(=O)(=O)N3CCCC3)c2)nc2ccccc21	10.4 µM (inactive)
COc1ccc(N2C(=O)CC(Sc3ncn[nH]3)C2=O)c(OC)c1 (stereo not drawn)	4.91 µM
Cc1ccc(-n2c(C)cc(C(=O)CSc3nnnn3C)c2C)cc1	> 95.1 µM (inactive)
FC(F)(F)c1ccc(N2CCN(c3cc(-c4ccccc4)nc4ncnn34)CC2)nc1	> 95.1 µM (inactive)
CSc1ccc(S(=O)(=O)Nc2ccc3c(c2)OCCO3)cc1	67.2 µM (inactive)
CCC(C)c1ccc2oc(-c3ccc(NC(=O)Cn4cnc5c(=O)n(C)c(=O)n(C)c54)cc3)nc2c1 (stereo not drawn)	> 95.1 µM (inactive)
COc1ccc(-c2nc(-c3ccccc3OC)no2)cc1OC	> 95.1 µM (inactive)
Cn1cccc1C(=O)OCc1cc(Cl)cc2c1OCOC2	> 30 µM (inactive)
Cc1cc(C(=O)CSc2nnc(-c3ccncc3)n2-c2ccccc2)c(C)n1C	> 95.1 µM (inactive)
COc1ccc(C(c2c(O)ccc3ccccc23)N2CCOCC2)c(OC)c1 (stereo not drawn)	1.45 µM
CCOc1ccc(-c2nc(CSCC(=O)N3CCN(c4cccc(OC)c4)CC3)c(C)o2)cc1	19.4 µM (inactive)
Clc1ccc(OCc2nnc(SCc3nc4ccccc4[nH]3)n2Cc2ccco2)cc1	36.4 µM (inactive)
CCN(C(=O)c1ccc(C(C)(C)C)cc1)c1nnc(Cn2nnc3ccccc32)s1	8.78 µM
CC1CCN(S(=O)(=O)c2ccc3c(c2)oc(=O)n3CC(=O)NCc2ccc3c(c2)OCO3)CC1	> 30 µM (inactive)
